Measured values as given in patent publication US9127004B2, “Nitrogen containing heterocyclic compounds” (Wockhardt Ltd., priority 2011, dated 2015).

Columns and labels:
Test in all cases: MIC of Ceftazidime in presence of test compound, agar dilution (CLSI)
Assay type in all cases: cell-based
E. coli M50 = details: compound present at 4 mcg/ml
Protocol: (§1) The biological activity of representative compounds according to the invention against various bacterial strains was investigated. In a typical study, overnight grown bacterial cultures were diluted appropriately and inoculated on the agar media containing doubling dilutions of the test compounds. Observation for growth or no growth was performed after 16-20 hours of incubation at 35±2° C. in ambient air. The overall procedure was performed as per Clinical and Laboratory Standards Institute (CLSI) recommendations (Clinical and Laboratory Standards Institute (CLSI), Performance Standards for Antimicrobial Susceptibility Testing, 20th Informational Supplement, M 100-S20, Volume 30, No. 1, 2010).
(§2) The antibacterial activity of representative compounds according to the invention was also investigated in combination with at least one antibacterial agent using the above study protocol and the results are given Table 3 and 4.

E. coli NCTC 13351 = details: compound present at 4 mcg/ml, Table 3
Protocol: as §1, §2

E. coli 7MP = details: compound present at 4 mcg/ml
Protocol: as §1, §2

E. coli W 13353 = details: E. coli W 13353, Class A ESBL; compound present at 4 mcg/ml; Table 4
Protocol: as §1, §2

E. coli W 13352 = details: E. coli W 13352, Class A ESBL; compound present at 4 mcg/ml; Table 4
Protocol: as §1, §2

A. baumannii 13301 = details: A. baumannii 13301, Class D ESBL; compound present at 4 mcg/ml; Table 4
Protocol: as §1, §2

K. pneumoniae H 522 = details: K. pneumoniae H 522, KPC ESBL; compound present at 4 mcg/ml; Table 4
Protocol: as §1, §2

K. pneumoniae H 520 = details: K. pneumoniae H 520, KPC ESBL; compound present at 4 mcg/ml; Table 4
Protocol: as §1, §2

E. coli B 89 = details: E. coli B 89, Class C ESBL; compound present at 4 mcg/ml; Table 4
Protocol: as §1, §2

E. coli W 13351 = details: E. coli W 13351, Class A ESBL; compound present at 4 mcg/ml; Table 4
Protocol: as §1, §2

K. pneumoniae H 521 = details: K. pneumoniae H 521, KPC ESBL; compound present at 4 mcg/ml; Table 4
Protocol: as §1, §2

A. baumannii 13304 = details: A. baumannii 13304, Class D ESBL; compound present at 4 mcg/ml; Table 4
Protocol: as §1, §2

Row | Structure (SMILES) | Activity of Ceftazidime (MIC) in presence of compound (E. coli M50; E. coli M50, Table 3) | Activity of Ceftazidime (MIC) in presence of compound (E. coli NCTC 13351) | Activity of Ceftazidime (MIC) in presence of compound (E. coli 7MP; Table 3) | other results
1 | O=C(c1nnc([C@H]2CC[C@@H]3CN2C(=O)N3OS(=O)(=O)[O-])o1)N1CCOCC1.[Na+] (relative stereo) [Example 12, Sodium salt of trans-sulfuric acid mono-[2-(5-(morpholin-4-yl-carbonyl)-[1,3,4]-oxadiazol-2-yl)-7-oxo-1,6-diazabicyclo[3.2.1]-octan-6-yl]ester] | 8 µg/mL | 2 µg/mL | 16 µg/mL | –
2 | O=C1N2C[C@@H](CC[C@@H]2c2nnc(-c3ccccn3)o2)N1OS(=O)(=O)[O-].[Na+] (relative stereo) [Example 8, Sodium salt of trans-6-(sulphooxy)-2-(5-(pyridin-2-yl)-[1,3,4]-oxadiazol-2-yl)-7-oxo-1,6-diazabicyclo[3.2.1]-octane] | 16 µg/mL | 16 µg/mL | 32 µg/mL | –
3 | NC(=O)c1nnc([C@H]2CC[C@@H]3CN2C(=O)N3OS(=O)(=O)O)o1.[Na] (relative stereo) [Example 4, Sodium salt of trans-6-(sulphooxy)-2-(5-carboxamido-[1,3,4]-oxadiazol-2-yl)-7-oxo-1,6-diazabicyclo[3.2.1]-octane] | 1 µg/mL | 0.5 µg/mL | 2 µg/mL | Activity of Ceftazidime (MIC) in presence of compound (E. coli W 13353): 0.25 µg/mL; Activity of Ceftazidime (MIC) in presence of compound (E. coli W 13352): 1 µg/mL; Activity of Ceftazidime (MIC) in presence of compound (E. coli M50; E. coli M 50, Class C ESBL, Table 4): 1 µg/mL; Activity of Ceftazidime (MIC) in presence of compound (A. baumannii 13301): >32 µg/mL; Activity of Ceftazidime (MIC) in presence of compound (K. pneumoniae H 522): 1 µg/mL; Activity of Ceftazidime (MIC) in presence of compound (K. pneumoniae H 520): 1 µg/mL; Activity of Ceftazidime (MIC) in presence of compound (E. coli B 89): 1 µg/mL; Activity of Ceftazidime (MIC) in presence of compound (E. coli 7MP; Class C ESBL, Table 4): 2 µg/mL; Activity of Ceftazidime (MIC) in presence of compound (E. coli W 13351): 0.5 µg/mL; Activity of Ceftazidime (MIC) in presence of compound (K. pneumoniae H 521): 1 µg/mL; Activity of Ceftazidime (MIC) in presence of compound (A. baumannii 13304): 8 µg/mL
4 | CCc1nnc([C@H]2CC[C@@H]3CN2C(=O)N3OS(=O)(=O)[O-])o1.[Na+] (relative stereo) [Example 2, Sodium salt of trans-6-(sulphooxy)-2-(5-ethyl-[1,3,4]-oxadiazol-2-yl)-7-oxo-1,6-diazabicyclo[3.2.1]-octane] | 16 µg/mL | 16 µg/mL | 32 µg/mL | –
5 | O=C1N2C[C@@H](CC[C@@H]2c2nnc(-c3cn4c(n3)COCC4)o2)N1OS(=O)(=O)O.[Na] (relative stereo) [Example 10, Sodium salt of trans-6-(sulphooxy)-2-(5-(5,6-dihydro-8H-imidazo[2,1-c][1,4]-oxazin-2-yl)-[1,3,4]-oxadiazol-2-yl)-7-oxo-1,6-diazabicyclo[3.2.1]-octane] | 16 µg/mL | 16 µg/mL | 32 µg/mL | –
6 | O=C1N2C[C@@H](CC[C@@H]2c2nnc(-c3ccco3)o2)N1OS(=O)(=O)[O-].[Na+] (relative stereo) [Example 6, Sodium salt of trans-6-(sulphooxy)-2-(5-(furan-2-yl)-[1,3,4]-oxadiazol-2-yl)-7-oxo-1,6-diazabicyclo[3.2.1]-octane] | 16 µg/mL | 32 µg/mL | 32 µg/mL | –
7 | O=C1N2C[C@@H](CC[C@@H]2c2nnc(-c3ccon3)o2)N1OS(=O)(=O)[O-].[Na+] (relative stereo) [Example 5, Sodium salt of trans-6-(sulphooxy)-2-(5-(isooxazol-3-yl)-[1,3,4]-oxadiazol-2-yl)-7-oxo-1,6-diazabicyclo[3.2.1]-octane] | 4 µg/mL | 4 µg/mL | 16 µg/mL | –
8 | NC(=O)c1cccc(-c2nnc([C@H]3CC[C@@H]4CN3C(=O)N4OS(=O)(=O)O)o2)n1.[Na] (relative stereo) [Example 9, Sodium salt of trans-6-(sulphooxy)-2-(5-(6-carboxamido-pyridin-2-yl)-[1,3,4]-oxadiazol-2-yl)-7-oxo-1,6-diazabicyclo[3.2.1]-octane] | 8 µg/mL | 2 µg/mL | >32 µg/mL | –
9 | O=C1N2C[C@@H](CC[C@@H]2c2nnc(CN3CCOCC3)o2)N1OS(=O)(=O)O.[Na] (relative stereo) [Example 11, Sodium salt of trans-6-(sulphooxy)-2-(5-(morpholino-4-methyl)-[1,3,4]-oxadiazol-2-yl)-7-oxo-1,6-diazabicyclo[3.2.1]-octane] | 2 µg/mL | 1 µg/mL | 32 µg/mL | –
10 | O=C1N2C[C@@H](CC[C@@H]2c2nnc(-c3ccccc3)o2)N1OS(=O)(=O)O.[Na] (relative stereo) [Example 7, Sodium salt of trans-6-(sulphooxy)-2-(5-phenyl-[1,3,4]-oxadiazol-2-yl)-7-oxo-1,6-diazabicyclo[3.2.1]-octane] | 16 µg/mL | 16 µg/mL | 32 µg/mL | –
11 | O=C1N2C[C@@H](CC[C@@H]2c2nnc(C(F)(F)F)o2)N1OS(=O)(=O)[O-].[Na+] (relative stereo) [Example 3, Sodium salt of trans-6-(sulphooxy)-2-(5-trifluoromethyl-[1,3,4]-oxadiazol-2-yl)-7-oxo-1,6-diazabicyclo[3.2.1]-octane] | 16 µg/mL | 16 µg/mL | 32 µg/mL | –
